Measurements reported in patent publication US9855245B2, “Methods for improving lipid profiles using atrasentan” (AbbVie Inc., priority 2013, dated 2018).
Several values for one entry are separate records, joined by “and”; a condition that tells them apart may be missing. Equal entries are not always repeated. Marks after values point to notes of the source that are not given here.

Test system: subjects with type 2 diabetes and nephropathy
Assay: Example 2: Phase 2b randomized, double-blind, placebo-controlled 12-week study conducted in Japan
Conditions: for Any adverse event / Any adverse event leading to discontinuation of study drug / Death / Fatal adverse event / Possibly or probably drug-related adverse event / Serious adverse event / Severe adverse event: N = 19; for Weight, LS Mean Change from Baseline (SE): Week 12; for UACR Change from Baseline LS Mean (SE) / UACR Geometric Mean Change (Percent): baseline to final on-treatment measurement

## CCCCN(CCCC)C(=O)CN1C[C@H](c2ccc3c(c2)OCO3)[C@@H](C(=O)O)[C@@H]1c1ccc(OC)cc1 [Atrasentan, (2R,3R,4S)-4-(1,3-benzodioxol-5-yl)-1-[2-(dibutylamino)-2-oxoethyl]-2-(4-methoxyphenyl)pyrrolidine-3-carboxylic acid]
0.75 mg
  Any adverse event: 17 (89.5) N (%) of Subjects
  Any adverse event leading to discontinuation of study drug: 1 (5.3) N (%) of Subjects
  Death: 0 N (%) of Subjects
  Fatal adverse event: 0 N (%) of Subjects
  Possibly or probably drug-related adverse event: 7 (36.8) N (%) of Subjects
  Serious adverse event: 3 (15.8) N (%) of Subjects
  Severe adverse event: 1 (5.3) N (%) of Subjects
0.75 mg/day
  Cholesterol, Difference (95% CI) from placebo: −26.1 (−42.77, −9.33) mg/dL
  Cholesterol, Final On-Treatment Visit Mean (SD): 173.5 (30.52) mg/dL
  Cholesterol, LS Mean Change from Baseline (SE): −28.0 (5.27) mg/dL
  HDL-C, Difference (95% CI) from placebo: −1.0 (−6.89, 4.91) mg/dL
  HDL-C, Final On-Treatment Visit Mean (SD): 48.8 (12.65) mg/dL
  HDL-C, LS Mean Change from Baseline (SE): −2.8 (1.86) mg/dL
  Had ≧30% Reduction in UACR and No Edema (no moderate or severe adverse event of edema): 8 (42.1) Number (%) of Subjects
  Hemoglobin, Difference (95% CI) from placebo: −1.22 (−1.863, −0.586) g/dL
  Hemoglobin, Final On-Treatment Visit Mean (SD): 11.74 (1.963) g/dL
  LDL-C, Difference (95% CI) from placebo: −19.4 (−33.56, −5.30) mg/dL
  LDL-C, Final On-Treatment Visit Mean (SD): 94.4 (29.10) mg/dL
  LDL-C, LS Mean Change from Baseline (SE): −18.6 (4.45) mg/dL
  Percentage of Subjects with ≧30% Reduction in Log-Transformed UACR from Baseline to Final Measurement: 52.6%
  Percentage of Subjects with ≧40% Reduction in Log-Transformed UACR from Baseline to Final Measurement: 31.6%
  Percentage of Subjects with ≧50% Reduction in Log-Transformed UACR from Baseline to Final Measurement: 21.1%
  Triglycerides, Difference (95% CI) from placebo: −32.9 (−74.44, 8.66) mg/dL
  Triglycerides, Final On-Treatment Visit Mean (SD): 148.1 (64.63) mg/dL
  Triglycerides, LS Mean Change from Baseline (SE): −28.8 (50.42) mg/dL
  Weight, Difference (95% CI) from placebo: 0.1 (−1.13, 1.36) kg
  Weight, Final On-Treatment Visit Mean (SD): 69.4 (13.26) kg
  fatigue leading to discontinuation: 1.7%
  geometric mean reduction in UACR, baseline to final on-treatment measurement: 31.44%
  incidence of peripheral edema: 21.1%
  mean (non-ambulatory) diastolic blood pressure change from baseline to last on-treatment visit: −5.74 mmHg
  mean ambulatory diastolic blood pressure change from baseline to Week 10: −6.0 mmHg
  mean ambulatory systolic blood pressure change from baseline to Week 10: −5.1 mmHg
  mean duration of edema: 38.2 days
  peripheral edema leading to discontinuation: 3.4%
  subjects discontinued from the study: 10.5%
  subjects who discontinued study drug because of adverse events: 5.3%
  Weight, LS Mean Change from Baseline (SE): 0.2 (0.45) kg
  UACR Change from Baseline LS Mean (SE): −0.38 (0.10) log mg/g creatinine
  UACR Geometric Mean Change (Percent): −31.44%
0.75 mg/day vs placebo
  UACR Between-group Comparison Difference (95% CI): −0.41 (−0.69, −0.13)
0.75 mg/day, Week 10
  mean eGFR, difference between atrasentan and placebo: statistically significant
0.75 mg/day, increased
  mean (non-ambulatory) systolic blood pressure change from baseline to last on-treatment visit: 1.93 mmHg
1.25 mg
  Any adverse event: 14 (73.7) N (%) of Subjects
  Any adverse event leading to discontinuation of study drug: 5 (26.3)* N (%) of Subjects
  Death: 0 N (%) of Subjects
  Fatal adverse event: 0 N (%) of Subjects
  Possibly or probably drug-related adverse event: 10 (52.6) N (%) of Subjects
  Serious adverse event: 2 (10.5) N (%) of Subjects
  Severe adverse event: 1 (5.3) N (%) of Subjects
1.25 mg/day
  Cholesterol, Difference (95% CI) from placebo: −25.0 (−41.95, −8.04) mg/dL
  Cholesterol, Final On-Treatment Visit Mean (SD): 169.6 (37.60) mg/dL
  Cholesterol, LS Mean Change from Baseline (SE): −26.9 (5.41) mg/dL
  HDL-C, Difference (95% CI) from placebo: −2.3 (−8.24, 3.73) mg/dL
  HDL-C, Final On-Treatment Visit Mean (SD): 46.4 (12.12) mg/dL
  HDL-C, LS Mean Change from Baseline (SE): −4.1 (1.91) mg/dL
  Had ≧30% Reduction in UACR and No Edema (no moderate or severe adverse event of edema): 9 (52.9) Number (%) of Subjects
  Hemoglobin, Difference (95% CI) from placebo: −1.14 (−1.773, −0.497) g/dL
  Hemoglobin, Final On-Treatment Visit Mean (SD): 11.67 (2.300) g/dL
  LDL-C, Difference (95% CI) from placebo: −19.7 (−34.02, −5.36) mg/dL
  LDL-C, Final On-Treatment Visit Mean (SD): 92.1 (35.00) mg/dL
  LDL-C, LS Mean Change from Baseline (SE): −18.9 (4.57) mg/dL
  Percentage of Subjects with ≧30% Reduction in Log-Transformed UACR from Baseline to Final Measurement: 64.7%
  Percentage of Subjects with ≧40% Reduction in Log-Transformed UACR from Baseline to Final Measurement: 64.7%
  Percentage of Subjects with ≧50% Reduction in Log-Transformed UACR from Baseline to Final Measurement: 52.9%
  Triglycerides, Difference (95% CI) from placebo: −16.5 (−58.63, 25.64) mg/dL
  Triglycerides, Final On-Treatment Visit Mean (SD): 160.6 (73.37) mg/dL
  Triglycerides, LS Mean Change from Baseline (SE): −12.4 (68.76) mg/dL
  Weight, Difference (95% CI) from placebo: 0.4 (−0.96, 1.68) kg
  Weight, Final On-Treatment Visit Mean (SD): 74.9 (14.51) kg
  fatigue leading to discontinuation: 3.1%
  geometric mean reduction in UACR, baseline to final on-treatment measurement: 53.76%
  incidence of peripheral edema: 31.6%
  mean (non-ambulatory) diastolic blood pressure change from baseline to last on-treatment visit: −4.33 mmHg
  mean (non-ambulatory) systolic blood pressure change from baseline to last on-treatment visit: −2.93 mmHg
  mean ambulatory diastolic blood pressure change from baseline to Week 10: −6.8 mmHg
  mean ambulatory systolic blood pressure change from baseline to Week 10: −7.2 mmHg
  mean duration of edema: 54.8 days
  peripheral edema leading to discontinuation: 4.7%
  subjects discontinued from the study: 26.3%
  subjects who discontinued study drug because of adverse events: 26.3%
  Weight, LS Mean Change from Baseline (SE): 0.4 kg and 0.4 (0.49) kg
  UACR Change from Baseline LS Mean (SE): −0.77 (0.10) log mg/g creatinine
  UACR Geometric Mean Change (Percent): −53.76%
1.25 mg/day vs placebo
  UACR Between-group Comparison Difference (95% CI): −0.80 (−1.09, −0.52)
1.25 mg/day, Weeks 6, 8, and 10
  mean eGFR, difference between atrasentan and placebo: statistically significant
All treatment groups, changes not clinically meaningful
  mean HDL-C change: decreased slightly
Both atrasentan groups (0.75 mg, 1.25 mg)
  cholesterol and LDL-C, differences from placebo: statistically significant
Both atrasentan groups, at Week 2 and throughout the study
  hemoglobin relative to placebo: Statistically significantly mean decreases
